{
  "source": "patent US20090246276A1",
  "about": "“Pharmaceutical Compositions” (priority 2008, published 2009)",
  "origin": "cited, not measured here",
  "test_system": "patients diagnosed with MDD",
  "settings": "citalopram non-responders, cited from earlier work",
  "note": "Read-outs that look alike come from different tables or passages of the source.",
  "data": [
    {"smiles": "CC(NC(C)(C)C)C(=O)c1cccc(Cl)c1", "note": "(centres unmarked) [Bupropion, bupropion]", "values": [
      {"measurement": "remission rate", "setting": "bupropion added on to the existing citalopram treatment", "value": 30, "unit": "%"},
      {"measurement": "remission rate", "setting": "switched to bupropion", "value": 20, "unit": "%"}
    ]}
  ]
}
